Test results taken from ChEMBL document CHEMBL1131246, “Design, synthesis, and biological evaluation of a second generation of pyrazolo[4,3-e]-1,2,4-triazolo[1,5-c]pyrimidines as potent and selective A2A adenosine receptor antagonists” (J Med Chem, 1998).

Key:
Adenosine receptor A2a [1] = target: Adenosine receptor A2a (Rattus norvegicus, UniProt P30543)
Adenosine receptor A1 [2] = target: T1, Adenosine receptor A1 (Rattus norvegicus, UniProt P25099)
T1 sequence (P25099 whole entry): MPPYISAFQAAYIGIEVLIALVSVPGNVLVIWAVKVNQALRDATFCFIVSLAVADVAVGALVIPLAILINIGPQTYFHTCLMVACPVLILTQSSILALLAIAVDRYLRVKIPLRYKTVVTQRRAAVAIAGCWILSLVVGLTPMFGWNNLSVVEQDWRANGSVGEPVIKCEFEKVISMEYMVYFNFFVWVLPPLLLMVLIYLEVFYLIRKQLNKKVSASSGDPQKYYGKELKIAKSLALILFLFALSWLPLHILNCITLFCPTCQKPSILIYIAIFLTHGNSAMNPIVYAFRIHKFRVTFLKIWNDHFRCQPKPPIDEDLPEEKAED
Description: Displacement of [3H]CHA from rat cortical membrane Adenosine A1 receptor. Parenthesis indicate 95% confidence limit.

Adenosine receptor A2a [3] = target: T2, Adenosine receptor A2a (Homo sapiens, UniProt P29274); experiment: Inhibition of 1 uM NECA-stimulated cyclic AMP levels in human platelets; type: functional
T2 sequence (P29274 whole entry): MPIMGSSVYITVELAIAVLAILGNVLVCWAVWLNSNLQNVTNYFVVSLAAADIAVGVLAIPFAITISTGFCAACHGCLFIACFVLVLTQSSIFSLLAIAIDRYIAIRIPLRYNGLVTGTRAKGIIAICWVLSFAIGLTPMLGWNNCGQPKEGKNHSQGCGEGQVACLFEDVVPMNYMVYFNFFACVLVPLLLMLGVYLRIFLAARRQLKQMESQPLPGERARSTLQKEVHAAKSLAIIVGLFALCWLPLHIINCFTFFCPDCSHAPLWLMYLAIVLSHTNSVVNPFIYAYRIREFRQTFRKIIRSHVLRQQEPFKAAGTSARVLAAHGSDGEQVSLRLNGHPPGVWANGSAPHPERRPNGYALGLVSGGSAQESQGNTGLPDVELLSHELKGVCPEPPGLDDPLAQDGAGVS

[4] = Selectivity for human A3 adenosine receptor and rat A2A adenosine receptor
Adenosine receptor A3 [5] = target: T3, Adenosine receptor A3 (Homo sapiens, UniProt P0DMS8); experiment: biochemical
T3 sequence (P0DMS8 whole entry): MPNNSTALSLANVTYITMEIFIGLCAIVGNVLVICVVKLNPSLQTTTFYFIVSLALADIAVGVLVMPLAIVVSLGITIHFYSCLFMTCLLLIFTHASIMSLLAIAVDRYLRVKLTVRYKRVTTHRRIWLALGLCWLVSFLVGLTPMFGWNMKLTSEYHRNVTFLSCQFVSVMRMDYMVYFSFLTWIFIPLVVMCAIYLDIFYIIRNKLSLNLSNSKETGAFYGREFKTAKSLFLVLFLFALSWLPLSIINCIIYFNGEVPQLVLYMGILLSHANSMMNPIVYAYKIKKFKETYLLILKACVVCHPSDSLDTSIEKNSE
Description: (§1) Displacement of [125I]AB-MECA from human Adenosine A3 receptor expressed in HEK293 cells

Adenosine receptor A2a [6] = target: T2, Adenosine receptor A2a; experiment: Displacement of [3H]-SCH- 58261 from human Adenosine A2A receptor expressed in CHO cells; type: cell-based
Adenosine receptor A3 [7] = target: T3, Adenosine receptor A3; experiment: biochemical; remark: listed apart in the source
Description: as §1

Adenosine receptor A1 [8] = target: T4, Adenosine receptor A1 (Homo sapiens, UniProt P30542); experiment: Displacement of [3H]CHA from human Adenosine A1 receptor expressed in CHO cells; type: cell-based
T4 sequence (P30542 whole entry): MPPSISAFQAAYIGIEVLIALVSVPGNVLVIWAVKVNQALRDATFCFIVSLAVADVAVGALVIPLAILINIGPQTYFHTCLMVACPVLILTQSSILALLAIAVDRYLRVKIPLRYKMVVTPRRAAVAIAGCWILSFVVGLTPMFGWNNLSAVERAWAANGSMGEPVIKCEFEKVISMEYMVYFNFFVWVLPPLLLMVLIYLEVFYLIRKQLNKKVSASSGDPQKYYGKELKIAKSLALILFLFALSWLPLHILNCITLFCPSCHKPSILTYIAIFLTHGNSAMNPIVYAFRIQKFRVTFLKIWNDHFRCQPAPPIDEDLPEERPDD

Adenosine receptor A2a (Rattus norvegicus, UniProt P30543), sequence (P30543 whole entry): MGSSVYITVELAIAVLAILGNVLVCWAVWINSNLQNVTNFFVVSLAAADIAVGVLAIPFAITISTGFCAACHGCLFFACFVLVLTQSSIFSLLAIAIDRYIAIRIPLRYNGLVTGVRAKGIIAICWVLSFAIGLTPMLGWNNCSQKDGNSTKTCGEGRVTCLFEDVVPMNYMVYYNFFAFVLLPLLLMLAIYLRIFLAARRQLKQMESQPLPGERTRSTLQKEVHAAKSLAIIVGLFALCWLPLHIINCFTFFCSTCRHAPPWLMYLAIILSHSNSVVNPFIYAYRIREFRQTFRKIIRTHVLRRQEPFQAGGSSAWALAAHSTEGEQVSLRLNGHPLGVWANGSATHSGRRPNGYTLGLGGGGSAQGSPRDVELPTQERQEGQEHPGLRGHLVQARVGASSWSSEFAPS

Compound	Ki (Adenosine receptor A2a [1])	Ki (Adenosine receptor A1 [2])	IC50 (Adenosine receptor A2a [3])	Selectivity [4]	Ki (Adenosine receptor A3 [5])	Ki (Adenosine receptor A2a [6])	Ki (Adenosine receptor A3 [7])	Ki (Adenosine receptor A1 [8])
Nc1nc2c(cnn2CCc2ccc(O)cc2)c2nc(-c3ccco3)nn12	1.7 nM	444 nM	14 nM	> 5880	> 10000 nM			
COc1ccc(CCCn2ncc3c2nc(N)n2nc(-c4ccco4)nc32)cc1OC	5.3 nM	2830 nM	20 nM	> 1890	> 10000 nM	2.7 nM	> 10000 nM	1650 nM
Nc1nc2c(cnn2CCCc2ccc(OCc3ccccc3)cc2)c2nc(-c3ccco3)nn12	45 nM	1460 nM	300 nM	> 222	> 10000 nM			
Nc1nc2c(cnn2CCCc2ccc3c(c2)OCO3)c2nc(-c3ccco3)nn12	3.8 nM	1840 nM	8 nM	> 2630	> 10000 nM	3.3 nM	> 10000 nM	2170 nM
Nc1nc2c(cnn2CCc2ccccc2)c2nc(-c3ccco3)nn12 [SCH-58261]					> 10000 nM			
Nc1nc2c(cnn2CCCc2ccc(O)cc2)c2nc(-c3ccco3)nn12	0.94 nM	741 nM	10 nM	> 10600	> 10000 nM	1.5 nM	> 10000 nM	253 nM
Nc1nc2c(cnn2CCCc2ccc(O)c(O)c2)c2nc(-c3ccco3)nn12	49 nM	2250 nM	60 nM	> 204	> 10000 nM			
Nc1nc2c(cnn2Cc2ccc(OCc3ccccc3)cc2)c2nc(-c3ccco3)nn12	246 nM	9450 nM	500 nM	> 40	> 10000 nM			
Nc1nc2ccc(Cl)cc2c2nc(-c3ccco3)nn12 [CGS-15943]	0.95 nM				14 nM			
Nc1nc2c(cnn2CCCc2ccccc2)c2nc(-c3ccco3)nn12 [SCH-63390]					> 10000 nM			
Nc1nc2c(cnn2CCc2ccc(OCc3ccccc3)cc2)c2nc(-c3ccco3)nn12	59 nM	> 10000 nM	90 nM	> 169	> 10000 nM			
Nc1nc2c(cnn2Cc2ccc(O)cc2)c2nc(-c3ccco3)nn12	53 nM	13400 nM	149 nM	> 188	> 10000 nM			
